Active and inactive are the calls of the source. No cut-off for these calls is given here.

Series [1] relates to Staphylococcus aureus. The series can be described thus: Antibacterial activity against drug-resistant Staphylococcus aureus ATCC43300 assessed as inhibition of resistance development at 0.5 times MIC after 25 passages incubated for 18 to 24 hrs by microbroth dilution method. The format is functional, organism-based. Conditions: time 18-24 hrs. A general note: Dilution methods test growth across graded concentrations, often in twofold steps.

In series [2] the test system is Staphylococcus aureus. The series can be described thus: Antibacterial activity against methicillin-resistant Staphylococcus aureus ATCC43300 assessed as filamentation on cell surface at 4 times MIC incubated for 2 hrs by SEM analysis. The format is functional, organism-based.
A short description of series [3]: Cytotoxicity against mouse RAW264.7 cells assessed as cell survival at 50 ug/ml incubated for 24 hrs by CCK8 assay relative to control. The format is toxicity, cell-based. Conditions: at 50 µg/mL, read-out: Activity. On the technique in general: Formazan colour is commonly taken as a measure of viable cells.
In series [4] the target is T1, Cell division protein FtsZ (Escherichia coli K-12) (UniProt P0A9A6).
T1 sequence (whole entry): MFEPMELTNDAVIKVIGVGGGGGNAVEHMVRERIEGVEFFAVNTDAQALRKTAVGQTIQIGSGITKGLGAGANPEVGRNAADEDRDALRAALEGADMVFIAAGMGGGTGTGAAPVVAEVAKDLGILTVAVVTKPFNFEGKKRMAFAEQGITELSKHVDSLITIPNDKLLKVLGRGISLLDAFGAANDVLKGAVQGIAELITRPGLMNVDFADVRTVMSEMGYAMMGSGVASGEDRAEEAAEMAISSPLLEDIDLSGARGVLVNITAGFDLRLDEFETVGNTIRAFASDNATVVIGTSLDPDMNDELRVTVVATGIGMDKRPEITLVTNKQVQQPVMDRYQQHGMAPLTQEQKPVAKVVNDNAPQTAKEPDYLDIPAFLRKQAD
The series can be described thus: Inhibition of recombinant Escherichia coli FtsZ expressed in Escherichia coli BL21 assessed as reduction in GTPase activity incubated for 30 mins by malachite green phosphate staining based assay. To be noted: dose 0.02-0.64 µg/ml.

In series [5] the test system is Escherichia coli. The series can be described thus: Antibacterial activity against penicillin-susceptible Escherichia coli ATCC25922 assessed as bacterial growth inhibition incubated for 18 to 24 hrs by microbroth dilution method. The format is functional. Conditions: time 18-24 hrs.
Series [6] concerns Staphylococcus aureus. The series can be described thus: Antibacterial activity against methicillin-resistant Staphylococcus aureus ATCC43300 assessed as log10 CFU reduction at 1 to 4 times MIC measured for 1 hr by time-killing assay. The format is functional.
Series [7] deals with T1, Cell division protein FtsZ (Escherichia coli K-12). The series can be described thus: Inhibition of recombinant Escherichia coli FtsZ expressed in Escherichia coli BL21 assessed as induction of FtsZ polymerization at 4 ug/ml incubated for 10 mins by light scattering assay. Conditions: dose 4.0 µg/ml.
Series [8] deals with Staphylococcus aureus. The series can be described thus: Inhibition of biofilm formation in methicillin-resistant Staphylococcus aureus ATCC43300 incubated for 24 hrs by crystal violet staining based assay. The format is functional, organism-based. Conditions: dose 0.012-12.5 µg/ml.
The subject of series [9] is Staphylococcus aureus. The series can be described thus: Antibacterial activity against methicillin-resistant Staphylococcus aureus ATCC43300 assessed as bacterial growth inhibition incubated for 18 to 24 hrs by microbroth dilution method. The format is functional. To be noted: time 18-24 hrs.
The test system of series [10] is Bacillus subtilis. The series can be described thus: Antibacterial activity against Bacillus subtilis BNCC336690 assessed as bacterial growth inhibition incubated for 18 to 24 hrs by microbroth dilution method. The format is functional. Conditions: time 18-24 hrs.
In series [11] the target is T1, Cell division protein FtsZ (Escherichia coli K-12). The series can be described thus: Inhibition of recombinant Escherichia coli FtsZ expressed in Escherichia coli BL21 assessed as bundling of FtsZ filaments at 4 ug/ml incubated for 10 mins by TEM analysis. Conditions: dose 4.0 µg/ml.
The target is the same in series [12]. The series can be described thus: Inhibition of recombinant Escherichia coli FtsZ expressed in Escherichia coli BL21 assessed as induction of FtsZ polymerization incubated for 10 mins by light scattering assay. Conditions: dose 1-4 µg/ml.
In series [13] the test system is Staphylococcus aureus. The series can be described thus: Inhibition of biofilm formation in methicillin-resistant Staphylococcus aureus ATCC43300 at 0.024 ug/ml incubated for 24 hrs by crystal violet staining based assay relative to control. The series is classed as functional.
Series [14] has as its system Staphylococcus aureus. The series can be described thus: Antibacterial activity against methicillin-resistant Staphylococcus aureus ATCC43300 assessed as wrinkling cell surface at 4 times MIC incubated for 2 hrs by SEM analysis. The format is functional, organism-based.
Series [15] in a line: Cytotoxicity against mouse RAW264.7 cells assessed as cell survival at 25 ug/ml incubated for 24 hrs by CCK8 assay relative to control. The series is classed as toxicity, cell-based. Conditions: at 25 µg/mL, read-out: Activity.
A short description of series [16]: Cytotoxicity against mouse RAW264.7 cells assessed as cell survival at 12.5 ug/ml incubated for 24 hrs by CCK8 assay relative to control. The format is toxicity, cell-based. Conditions: at 12.5 µg/mL, read-out: Activity.
Series [17] concerns Bacillus subtilis. The series can be described thus: Antibacterial activity against Bacillus subtilis BNCC336690 assessed as increase in cell length at 0.5 times MIC incubated for 4 hrs by microscopic analysis. The format is functional, organism-based.
Series [18] concerns Streptococcus pneumoniae. The series can be described thus: Antibacterial activity against Streptococcus pneumoniae ATCC49619 assessed as bacterial growth inhibition incubated for 18 to 24 hrs by microbroth dilution method. The series is classed as functional. To be noted: time 18-24 hrs.
Series [19] concerns Staphylococcus aureus. The series can be described thus: Inhibition of biofilm formation in methicillin-resistant Staphylococcus aureus ATCC43300 at 0.049 ug/ml incubated for 24 hrs by crystal violet staining based assay relative to control. The series is classed as functional.
The test system of series [20] is Staphylococcus aureus. The series can be described thus: Inhibition of biofilm formation in methicillin-resistant Staphylococcus aureus ATCC43300 at 0.012 ug/ml incubated for 24 hrs by crystal violet staining based assay relative to control. The series is classed as functional.
Series [21] is described as follows: Hemolytic activity in human erythrocytes assessed as release of hemoglobin level at 12.5 ug/ml incubated for 1 hr by absorbance based assay relative to control. To be noted: at 12.5 µg/mL, read-out: Activity. The series is classed as toxicity, cell-based, Erythrocyte.

As to `CCCCCCCCNC(=O)c1ccc2[nH]c3c4[n+](ccc3c2c1)-c1ccccc1C4=O.[Br-]`, the inhibition result in series [1] was “inactive”. The outcome in series [2], in series [14] and in series [17] was Active. The viability at 24 h, 50 ug/ml in series [3] stood at 73.3%. Also, the inhibition entry in [4], in series [8] and in series [12] was “Dose-Dependent Effect” in each case. In addition, the minimal inhibitory concentration (MIC) is > 200 µg/mL in [5], 0.098 µg/mL in series [9], 0.098 µg/mL in series [10] and 0.39 µg/mL in series [18]. The Activity in series [6] was 2 log10CFU/ml. Further, the inhibition result in [7] and in [11] was “Active” each time. Also, the inhibition at 0.024 µg/mL in [13] was ~42.7%. Moreover, the viability at 24 h, 25 ug/ml in series [15] stood at 84.1%. Moreover, in series [16], the viability at 24 h, 12.5 ug/ml is 103%. This molecule also showed an inhibition at 0.049 µg/mL in series [19] of 82.6%. Also, the inhibition at 0.012 µg/mL in series [20] is ~11.9%. Besides, in series [21], the hemolysis at 1 h, 12.5 ug/ml worked out at 0%.

In general, inhibition refers to the share of the control response that was lost under treatment. Usually MIC stands for the least concentration at which growth counts as inhibited.

Source of the values: ChEMBL document CHEMBL5325422, “Design and synthesis of fascaplysin derivatives as inhibitors of FtsZ with potent antibacterial activity and mechanistic study” (Eur J Med Chem, 2023).
